A word on the pKi: it is −log10 of the Ki, conventionally taken in molar units. A lower pKi goes with a large Ki.

Structures are written as SMILES. pKi: −log10 of the molar value.

For experiment [1], the species on record is Homo sapiens. The experiment in a line: Selectivity index, ratio of Ki for human beta-hexosaminidase A to Ki for human O-GlcNAcase.
For experiment [2], the species on record is Homo sapiens. In words: Selectivity index, ratio of Ki for human beta-hexosaminidase B to Ki for human O-GlcNAcase.
The next experiment deals with T1, Protein O-GlcNAcase (Homo sapiens, UniProt O60502).
T1 sequence (O60502 whole entry): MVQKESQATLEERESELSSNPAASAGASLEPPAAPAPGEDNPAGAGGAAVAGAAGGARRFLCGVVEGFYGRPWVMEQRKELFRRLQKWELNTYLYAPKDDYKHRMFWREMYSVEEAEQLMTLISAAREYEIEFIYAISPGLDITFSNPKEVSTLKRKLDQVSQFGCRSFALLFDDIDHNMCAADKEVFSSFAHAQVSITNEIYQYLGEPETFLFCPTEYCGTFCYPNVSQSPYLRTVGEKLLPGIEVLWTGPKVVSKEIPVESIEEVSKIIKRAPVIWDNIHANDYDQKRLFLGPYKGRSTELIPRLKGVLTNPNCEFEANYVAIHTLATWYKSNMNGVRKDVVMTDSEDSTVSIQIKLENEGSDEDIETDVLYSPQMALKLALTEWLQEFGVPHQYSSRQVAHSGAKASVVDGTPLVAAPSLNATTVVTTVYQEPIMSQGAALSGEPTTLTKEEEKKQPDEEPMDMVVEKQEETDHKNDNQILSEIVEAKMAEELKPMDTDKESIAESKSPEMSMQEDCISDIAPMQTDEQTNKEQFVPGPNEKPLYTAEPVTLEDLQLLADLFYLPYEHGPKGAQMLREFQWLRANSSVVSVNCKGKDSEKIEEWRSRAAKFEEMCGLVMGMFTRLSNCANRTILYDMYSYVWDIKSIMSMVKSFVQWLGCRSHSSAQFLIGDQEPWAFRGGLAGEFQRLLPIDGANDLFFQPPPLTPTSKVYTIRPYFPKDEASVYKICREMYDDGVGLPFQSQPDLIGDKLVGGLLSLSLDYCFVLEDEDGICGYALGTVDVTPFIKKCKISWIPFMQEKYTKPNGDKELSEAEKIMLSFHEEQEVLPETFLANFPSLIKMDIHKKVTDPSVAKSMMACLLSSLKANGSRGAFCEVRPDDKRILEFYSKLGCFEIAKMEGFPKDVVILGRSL
The experiment in a line: Competitive inhibition of human O-GlcNAcase by Lineweaver-Burk analysis.

Regarding `C=C/C=C/C(=O)N[C@H]1c2nc(CCc3ccccc3)cn2[C@H](CO)[C@@H](O)[C@@H]1O`, the Ratio Ki in the experiment filed under Homo sapiens [1] and in the experiment filed under Homo sapiens [2] was 900000 each time. This compound also gave a pKi on Protein O-GlcNAcase of 8.39.

(Values after ChEMBL document CHEMBL4190312, “Tau protein aggregation in Alzheimer's disease: An attractive target for the development of novel therapeutic agents” (Eur J Med Chem, 2017).)
